Patent publication US12295952B2, “Methods of treating heart failure with cardiac sarcomere activators” (Amgen Inc., priority 2017, dated 2025)
Several values for one entry are separate records, joined by “and”; a condition that tells them apart may be missing. Equal values may be shown once. Entries after “also recorded” stand apart in the source; their conditions may differ.

Key:
[1] = COSMIC-HF: concentrations of omecamtiv mecarbil in plasma; assay type: in vivo; settings: for Maximum Concentration / Predose Concentration: mean (SD)
Description: (§1) In this randomized, double-blind study, done at 87 sites in 13 countries, patients with stable, symptomatic chronic heart failure and left ventricular ejection fraction 40% or lower were recruited. Patients were randomly assigned equally, via an interactive web response system, to receive 25 mg oral omecamtiv mecarbil twice daily (fixed-dose group), 25 mg twice daily titrated to 50 mg twice daily guided by pharmacokinetics (pharmacokinetic-titration group), or placebo for 20 weeks. The maximum concentration of omecamtiv mecarbil in plasma (primary endpoint) and changes in cardiac function and ventricular diameters were assessed. This trial is registered with ClinicalTrials.gov, number NCT01786512.
All patients received study treatment or placebo for 20 weeks and were followed up at week 24 after randomization. Patients in the pharmacokinetic-titration group received 25 mg omecamtiv mecarbil twice daily for 2 weeks to reach a steady state. If the trough omecamtiv mecarbil concentration in plasma before the morning dose (predose concentration) at 2 weeks was less than 200 ng/mL, the dose was titrated up to 50 mg twice daily at week 8. If the predose concentration was 200 ng/mL or higher, patients continued taking 25 mg twice daily until the end of the study. To access the pharmacokinetics in this population more rigorously than permitted by just trough sampling, intensive pharmacokinetic sampling was done at the end of weeks 2 and 12, over a period of 8 h on each day.
(§2) The primary endpoint was the maximum concentration of omecamtiv mecarbil at the week 2 and 12 visits and the predose concentration at the week 2, 8, 12, 16, and 20 visits. Secondary endpoints were changes from baseline in systolic ejection time, stroke volume, left ventricular end-systolic and end-diastolic diameters, heart rate, and concentration of NT-proBNP in plasma at week 20. Additional prespecified exploratory echocardiographic endpoints included left ventricular fractional shortening, end-systolic and end-diastolic volumes, and ejection fraction. The clinical events committee adjudicated whether admissions to hospital and deaths and all episodes of myocardial ischaemia or infarction reported by investigators or based on an increase of cardiac troponin I concentration in plasma met the criteria for study endpoints.

[2] = system: patients with stable, symptomatic chronic heart failure and left ventricular ejection fraction 40% or lower; test: COSMIC-HF: safety variables and adverse events; assay type: in vivo
Description: as §1
(§3) Patients attended study clinics at weeks 2 and 8, after which visits were every 4 weeks until week 24. Transthoracic echocardiograms were done at baseline, week 12, and week 20 and analyzed centrally. Blood samples were obtained at specified visits for analysis in the central laboratory.
as §2

[3] = system: patients with stable, symptomatic chronic heart failure and left ventricular ejection fraction 40% or lower; test: COSMIC-HF: changes in cardiac function, ventricular diameters, heart rate and NT-proBNP; assay type: in vivo, human; settings: for NT-proBNP concentration in plasma, difference versus placebo: 4 weeks after omecamtiv mecarbil was stopped
Description: as §1, §3, §2
The standard deviations (SDs) for maximum and minimum concentrations of omecamtiv mecarbil in plasma were assumed to be in the range of 40-140 ng/mL.^6-8,11-13 On this basis, it was calculated that 142 patients in the pharmacokinetic-titration group would provide a two-sided 95% CI with half width of 6·6-23·0 ng/mL, assuming that 5% of patients would not have assessable concentrations of omecamtiv mecarbil, which was deemed sufficient for accurate population estimates of these concentrations. Previous work in a similar population of patients had shown that plasma concentrations of omecamtiv mecarbil as low as 100-200 ng/mL had some effect on cardiac function, but that the effect on stroke volume seemed to plateau with concentrations greater than 400 ng/mL, and that plasma concentrations greater than 1200 ng/mL were not clinically tolerated.^7 Thus, it was attempted to achieve a maximum concentration greater than 200 ng/mL and avoid exposures to concentrations greater than 1000 ng/mL. Additionally, with 150 patients in each group and significance set at α=0·05 (two-sided), it was estimated that the statistical power for detecting a treatment effect on the echocardiographic endpoints of systolic ejection time, stroke volume, and left ventricular end-systolic diameter would be more than 90%. Differences between groups for changes in echo cardio graphic variables, heart rate, and NT-proBNP concentrations from baseline were estimated with a repeated measures model fitted separately for each variable and that included the stratification factors of presence or absence of atrial fibrillation or flutter at randomisation, baseline value, treatment group, visit, and treatment group by visit interaction. An unstructured covariance matrix was used to account for the correlation between visits within patients. Least squares mean differences with 95% CIs of the mean relative to placebo are presented unless otherwise indicated. As the study was hypothesis generating, all p values are nominal with no multiplicity adjustment. This study is registered with ClinicalTrials.gov, number NCT01786512.

patients = settings: previous work, similar population of patients; cited from earlier work
[4] = Week 2, fixed-dose group (25 mg twice daily)
[5] = Week 12, fixed-dose group (25 mg twice daily)
[6] = Week 12, fixed-dose group (25 mg twice daily), listed as OM
[7] = Week 12, fixed-dose group, of 137 patients with measurements
[8] = Week 12, pharmacokinetic-titration group
[9] = Week 12, pharmacokinetic-titration group, listed as OM
[10] = Week 12, pharmacokinetic-titration group, of 127 patients with measurements
[11] = pharmacokinetic-titration group
[12] = pharmacokinetic-titration OM group (n = 146)
[13] = week 20, pharmacokinetic-titration group

Q: Which “Maximum Concentration” value [1, 4] does the source give for COC(=O)N1CCN(Cc2cccc(NC(=O)Nc3ccc(C)nc3)c2F)CC1 [omecamtiv mecarbil] here?
A: Its value is 212 (70.4) 33.2% ng/mL.

Q: What about the “Predose Concentration” value [1, 4] of the same compound?
A: The value was 174 (62.2) 35.7% ng/mL.

Q: And the “Predose Concentration” value ([1]; Week 2, pharmacokinetic-titration group (25 mg titrated to 50 mg twice daily))?
A: The value was 179 (68.8) 38.4% ng/mL.

Q: What about the “Maximum Concentration” value ([1]; Week 2, pharmacokinetic-titration group) of the same compound?
A: Its value is 212 (81.0) 38.2% ng/mL.

Q: What about the “Predose Concentration” value ([1]; Week 8, fixed-dose group (25 mg twice daily)) of the same compound?
A: The value was 156 (69.1) 44.2% ng/mL.

Q: And the “Predose Concentration” value ([1]; Week 8, pharmacokinetic-titration group)?
A: The value was 161 (74.4) 46.1% ng/mL.

Q: What about the “Maximum Concentration” value [1, 5] of the same compound?
A: Its value is 200 (SD 71) ng/mL and 200 (71) ng/mL.

Q: And the “Predose Concentration” value [1, 5]?
A: Its value is 165 (SD 68) ng/mL.

Q: What about the “Maximum Concentration” value [1, 6] of the same compound?
A: The value was 200 (71.1) 35.6% ng/mL.

Q: What about the “Predose Concentration” value [1, 6] of the same compound?
A: The value was 165 (67.9) 41.3% ng/mL.

Q: What about the “Patients with maximum drug concentrations in plasma greater than or equal to 200 ng/mL, %” value [1, 7] of the same compound?
A: The value was 46%.

Q: And the “Patients with maximum drug concentrations in plasma greater than or equal to 200 ng/mL, number” value [1, 7]?
A: Its value is 63.

Q: What about the “Maximum Concentration” value [1, 8] of the same compound?
A: The value was 318 (129) ng/mL.

Q: What about the “Predose Concentration” value [1, 8] of the same compound?
A: The value was 263 (116) ng/mL.

Q: And the “Maximum Concentration” value [1, 9]?
A: Its value is 318 (129) 40.5% ng/mL.

Q: What about the “Predose Concentration” value [1, 9] of the same compound?
A: The value was 263 (116) 44.1% ng/mL.

Q: What about the “Patients with maximum drug concentrations in plasma greater than or equal to 200 ng/mL, %” value [1, 10] of the same compound?
A: The value was 87%.

Q: And the “Patients with maximum drug concentrations in plasma greater than or equal to 200 ng/mL, number” value [1, 10]?
A: Its value is 110.

Q: And the “Predose Concentration” value ([1]; Week 16, fixed-dose group (25 mg twice daily))?
A: Its value is 155 (69.0) 44.6% ng/mL.

Q: And the “Predose Concentration” value ([1]; Week 16, pharmacokinetic-titration group)?
A: Its value is 240 (120) 50.0% ng/mL.

Q: And the “Predose Concentration” value ([1]; Week 20, fixed-dose group (25 mg twice daily))?
A: The value was 149 (71.2) 47.8% ng/mL.

Q: And the “Predose Concentration” value ([1]; Week 20, pharmacokinetic-titration group)?
A: The value was 239 (118) 49.5% ng/mL.

Q: And the “Maximum observed concentration in plasma at any time during the study” value ([1]; fixed-dose group)?
A: Its value is 453 ng/mL.

Q: What about the “Maximum observed concentration in plasma at any time during the study” value [1, 11] of the same compound?
A: The value was 831 ng/mL.

Q: And the “Patients with a maximum concentration greater than 750 ng/mL” value [1, 11]?
A: The value was “one”.

Q: And the “Frequencies of adverse events, serious adverse events and deaths across groups (versus placebo)” value ([2]; 20 weeks of treatment)?
A: Its value is “did not differ; also recorded: similar”.

Q: And the “Adjudicated clinical events: Cardiovascular death, %” value ([2]; fixed-dose OM group (n = 150))?
A: The value was “(1%)”.

Q: What about the “Adjudicated clinical events: Cardiovascular death, number” value ([2]; fixed-dose OM group (n = 150)) of the same compound?
A: The value was 1.

Q: What about the “Adjudicated clinical events: Death, %” value ([2]; fixed-dose OM group (n = 150)) of the same compound?
A: The value was “(1%)”.

Q: And the “Adjudicated clinical events: Death, number” value ([2]; fixed-dose OM group (n = 150))?
A: Its value is 1.

Q: And the “Adjudicated clinical events: Hospital admission: Chest paint†, %” value ([2]; human, in vivo, 20 weeks)?
A: The value was “(1%)”.

Q: And the “Adjudicated clinical events: Hospital admission: Chest paint†, number” value ([2]; human, in vivo, 20 weeks)?
A: The value was 2.

Q: And the “Adjudicated clinical events: Hospital admission: Myocardial infarction, %” value ([2]; human, in vivo, 20 weeks)?
A: Its value is “(1%)”.

Q: What about the “Adjudicated clinical events: Hospital admission: Myocardial infarction, number” value ([2]; human, in vivo, 20 weeks) of the same compound?
A: Its value is 1.

Q: And the “Adjudicated clinical events: Hospital admission: Unstable angina, %” value ([2]; human, in vivo, 20 weeks)?
A: Its value is “(1%)”.

Q: And the “Adjudicated clinical events: Total myocardial infarction**, %” value ([2]; human, in vivo, 20 weeks)?
A: The value was “(1%)”.

Q: What about the “Serious adverse events: Acute cardiac failure, %” value ([2]; human, in vivo, 20 weeks) of the same compound?
A: Its value is “(2%)”.

Q: And the “Serious adverse events: Acute cardiac failure, number” value ([2]; human, in vivo, 20 weeks)?
A: The value was 3.

Q: What about the “Serious adverse events: Cardiac, %” value ([2]; human, in vivo, 20 weeks) of the same compound?
A: Its value is “(12%)”.

Q: And the “Serious adverse events: Congestive cardiac failure, %” value ([2]; human, in vivo, 20 weeks)?
A: Its value is “(2%)”.

Q: And the “Serious adverse events: Congestive cardiac failure, number” value ([2]; human, in vivo, 20 weeks)?
A: Its value is 3.

Q: What about the “Serious adverse events: Ventricular tachycardia, %” value ([2]; human, in vivo, 20 weeks) of the same compound?
A: The value was “(1%)”.

Q: And the “Adjudicated clinical events: Hospital admission: Myocardial infarction, number” value ([2]; in vivo)?
A: The value was 0.

Q: What about the “Cardiac troponin | concentrations: Change to Week 24” value ([2]; in vivo) of the same compound?
A: The value was 0 ng/mL.

Q: What about the “Share of maximum cardiac troponin I increases from baseline that were less than 0·1 ng/mL” value ([2]; in vivo) of the same compound?
A: Its value is 92%.

Q: And the “Share of maximum cardiac troponin I increases from baseline that were less than 0·2 ng/mL” value ([2]; in vivo)?
A: The value was 97%.

Q: What about the “Time for plasma cardiac troponin I to return to baseline levels after discontinuing” value ([2]; in vivo) of the same compound?
A: The value was at most 4 weeks.

Q: What about the “Troponin-triggered potential adverse events deemed myocardial ischaemia or myocardial infarction on adjudication” value ([2]; in vivo) of the same compound?
A: Its value is “none”.

Q: What about the “Adjudicated clinical events: Cardiovascular death, %” value [2, 12] of the same compound?
A: Its value is “(1%)”.

Q: What about the “Adjudicated clinical events: Cardiovascular death, number” value [2, 12] of the same compound?
A: Its value is 2.

Q: And the “Adjudicated clinical events: Death, %” value [2, 12]?
A: The value was “(2%)”.

Q: What about the “Adjudicated clinical events: Death, number” value [2, 12] of the same compound?
A: Its value is 3.

Q: And the “NT-proBNP concentration in plasma, difference versus placebo” value ([3]; fixed-dose group)?
A: The value was -1327 pg/mL.

Q: And the “NT-proBNP concentration in plasma, difference versus placebo” value [3, 11]?
A: The value was -1306 pg/mL.

Q: And the “Systolic ejection times, average increases” value ([3]; chronic oral administration, across both omecamtiv mecarbil groups)?
A: The value was 11 to 25 ms.

Q: And the “NT-proBNP concentration in plasma, least square mean difference versus placebo” value ([3]; week 20, fixed-dose group)?
A: The value was -822 pg/mL.

Q: What about the “Stroke volume, least square mean difference versus placebo” value ([3]; week 20, fixed-dose group) of the same compound?
A: Its value is 5 mL.

Q: And the “Systolic ejection time, least square mean difference versus placebo” value ([3]; week 20, fixed-dose group)?
A: Its value is 11 ms.

Q: And the “Fractional shortening compared with placebo” value [3, 13]?
A: The value was “increases”.

Q: What about the “Left ventricular end-diastolic and end-systolic volumes compared with placebo” value [3, 13] of the same compound?
A: The value was “reductions”.

Q: And the “NT-proBNP concentration in plasma, least square mean difference versus placebo” value [3, 13]?
A: Its value is -970 pg/mL.

Q: What about the “Stroke volume, least square mean difference versus placebo” value [3, 13] of the same compound?
A: Its value is 3.6 mL and 4 mL.

Q: And the “Systolic ejection time, least square mean difference versus placebo” value [3, 13]?
A: The value was 25 ms.

Q: What about the “Plasma concentrations at which the effect on stroke volume seemed to plateau” value (patients) of the same compound?
A: Its value is “greater than 400 ng/mL”.

Q: What about the “Plasma concentrations not clinically tolerated” value (patients) of the same compound?
A: The value was “greater than 1200 ng/mL”.

Q: What about the “Plasma concentrations that had some effect on cardiac function (as low as)” value (patients) of the same compound?
A: The value was 100 to 200 ng/mL.
